Results as given in US20260262643A1, “HERBICIDAL BENZOXAZINES” (FMC CORPORATION, priority 2022, published 2026).

What was measured:
blackgrass [1] = assay: Test A preemergence; assay type: in vivo, Alopecurus myosuroides
Summary of the method: (§1)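 Weeds and crops in loam–sand blend were sprayed preemergence onto soil or postemergence at 2–10 cm (one- to two-leaf stage). Test chemicals were in a non-phytotoxic solvent with surfactant. After 10 days in the greenhouse, injury was rated visually against untreated controls on a 0 (no effect) to 100 (complete control) scale.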

corn [2] = assay: Test A preemergence; assay type: in vivo, Zea mays
Summary of the method: as §1

foxtail, giant [3] = assay: Test A preemergence; assay type: in vivo, Setaria faberi
Summary of the method: as §1

goosegrass [4] = assay: Test A preemergence; assay type: in vivo, Eleusine indica
Summary of the method: as §1

kochia [5] = assay: Test A preemergence; assay type: in vivo, Bassia scoparia
Summary of the method: as §1

oat, wild [6] = assay: Test A preemergence; assay type: in vivo, Avena fatua
Summary of the method: as §1

pigweed, palmer [7] = assay: Test A preemergence; assay type: in vivo, Amaranthus palmeri
Summary of the method: as §1

ragweed [8] = assay: Test A preemergence; assay type: in vivo, Ambrosia artemisiifolia
Summary of the method: as §1

ryegrass, Italian [9] = assay: Test A preemergence; assay type: in vivo, Lolium multiflorum
Summary of the method: as §1

soybean [10] = assay: Test A preemergence; assay type: in vivo, Glycine max
Summary of the method: as §1

wheat [11] = assay: Test A preemergence; assay type: in vivo, Triticum aestivum
Summary of the method: as §1

blackgrass [12] = assay: Test A postemergence; assay type: in vivo, Alopecurus myosuroides
Summary of the method: as §1

corn [13] = assay: Test A postemergence; assay type: in vivo, Zea mays
Summary of the method: as §1

foxtail, giant [14] = assay: Test A postemergence; assay type: in vivo, Setaria faberi
Summary of the method: as §1

goosegrass [15] = assay: Test A postemergence; assay type: in vivo, Eleusine indica
Summary of the method: as §1

kochia [16] = assay: Test A postemergence; assay type: in vivo, Bassia scoparia
Summary of the method: as §1

oat, wild [17] = assay: Test A postemergence; assay type: in vivo, Avena fatua
Summary of the method: as §1

pigweed, palmer [18] = assay: Test A postemergence; assay type: in vivo, Amaranthus palmeri
Summary of the method: as §1

ragweed [19] = assay: Test A postemergence; assay type: in vivo, Ambrosia artemisiifolia
Summary of the method: as §1

ryegrass, Italian [20] = assay: Test A postemergence; assay type: in vivo, Lolium multiflorum
Summary of the method: as §1

soybean [21] = assay: Test A postemergence; assay type: in vivo, Glycine max
Summary of the method: as §1

wheat [22] = assay: Test A postemergence; assay type: in vivo, Triticum aestivum
Summary of the method: as §1

galium = assay: Test A postemergence; assay type: in vivo, Galium aparine
Summary of the method: as §1

barnyardgrass = assay: Test B flooded paddy test; assay type: in vivo, Echinochloa crus-galli; details: 250 g ai/ha, Flood, 13 days, 0 to 100 scale (0 no effect, 100 complete control)
Summary of the method: (§2)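 Application into standing water (3 cm above soil) at the two-leaf stage; flood depth held constant. Evaluation: day 13, visual comparison with controls, 0 = no injury, 100 = complete control.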

ducksalad = assay: Test B flooded paddy test; assay type: in vivo, Heteranthera limosa; details: 250 g ai/ha, Flood, 13 days, 0 to 100 scale (0 no effect, 100 complete control)
Summary of the method: as §2

rice = assay: Test B flooded paddy test; assay type: in vivo, Oryza sativa; details: 250 g ai/ha, Flood, 13 days, 0 to 100 scale (0 no effect, 100 complete control)
Summary of the method: as §2

sedge, umbrella = assay: Test B flooded paddy test; assay type: in vivo, Cyperus difformis; details: 250 g ai/ha, Flood, 13 days, 0 to 100 scale (0 no effect, 100 complete control)
Summary of the method: as §2

[23] = 125 g ai/ha, visual injury after 10 days, 0 to 100 scale, 0 is no effect, 100 is complete control
[24] = 500 g ai/ha, 0 to 100 scale (0 no effect, 100 complete control), 10 days
[25] = 125 g ai/ha, postemergence, 10 days, visual injury, 0 to 100 scale (0 no effect, 100 complete control)
[26] = 500 g ai/ha, Postemergence, 0 to 100 scale

CC1CN(C(=O)c2cc(F)cc(-n3cncn3)c2)c2cccc(Cl)c2O1 (stereo not drawn) [Compound 37]
80: Plant response rating, Blackgrass (blackgrass [1]; [24]) | Plant response rating, Ryegrass, Italian (ryegrass, Italian [9]; [23]) | Plant response rating, Blackgrass (blackgrass [12]; [26]) | Plant response rating, Corn (corn [13]; [26]) | Plant response rating, Wheat (wheat [22]; [26])
0: Plant response rating, Corn (corn [2]; [23]) | Plant response rating, Kochia (kochia [5]; [23]) | Plant response rating, Oat, Wild (oat, wild [6]; [23]) | Plant response rating, Ragweed (ragweed [8]; [23]) | Plant response rating, Ragweed (ragweed [8]; [24]) | Plant response rating, Soybean (soybean [10]; [23]) | Plant response rating, Wheat (wheat [11]; [23]) | Plant response rating, Oat, Wild (oat, wild [17]; [25]) | Plant response rating, Ragweed (ragweed [19]; [25]) | Plant response rating, Ragweed (ragweed [19]; [26]) | Plant response rating, Barnyardgrass (barnyardgrass) | Plant response rating, Ducksalad (ducksalad) | Plant response rating, Rice (rice) | Plant response rating, Sedge, Umbrella (sedge, umbrella)
40: Plant response rating, Goosegrass (goosegrass [15]; [25]) | Plant response rating, Wheat (wheat [22]; [25]) | Plant response rating, Galium (galium; [25])
100: Plant response rating, Foxtail, Giant (foxtail, giant [3]; [24]) | Plant response rating, Goosegrass (goosegrass [4]; [24]) | Plant response rating, Soybean (soybean [21]; [25]) | Plant response rating, Soybean (soybean [21]; [26]) | Plant response rating, Galium (galium; [26])
20: Plant response rating, Corn (corn [2]; [24]) | Plant response rating, Kochia (kochia [5]; [24]) | Plant response rating, Wheat (wheat [11]; [24])
10: Plant response rating, Corn (corn [13]; [25])
30: Plant response rating, Blackgrass (blackgrass [12]; [25]) | Plant response rating, Oat, Wild (oat, wild [17]; [26]) | Plant response rating, Pigweed, Palmer (pigweed, palmer [18]; [25]) | Plant response rating, Ryegrass, Italian (ryegrass, Italian [20]; [25])
70: Plant response rating, Soybean (soybean [10]; [24])
50: Plant response rating, Pigweed, Palmer (pigweed, palmer [7]; [23]) | Plant response rating, Foxtail, Giant (foxtail, giant [14]; [25]) | Plant response rating, Kochia (kochia [16]; [25])
90: Plant response rating, Foxtail, Giant (foxtail, giant [3]; [23]) | Plant response rating, Goosegrass (goosegrass [4]; [23]) | Plant response rating, Pigweed, Palmer (pigweed, palmer [7]; [24]) | Plant response rating, Ryegrass, Italian (ryegrass, Italian [9]; [24]) | Plant response rating, Foxtail, Giant (foxtail, giant [14]; [26]) | Plant response rating, Goosegrass (goosegrass [15]; [26]) | Plant response rating, Kochia (kochia [16]; [26]) | Plant response rating, Ryegrass, Italian (ryegrass, Italian [20]; [26])
60: Plant response rating, Blackgrass (blackgrass [1]; [23]) | Plant response rating, Oat, Wild (oat, wild [6]; [24]) | Plant response rating, Pigweed, Palmer (pigweed, palmer [18]; [26])

C[C@H]1CN(C(=O)c2cccc(-n3cncn3)c2)c2cccc(C(F)(F)F)c2O1 [Compound 47]
90: Plant response rating, Blackgrass (blackgrass [1]; [24]) | Plant response rating, Foxtail, Giant (foxtail, giant [3]; [24]) | Plant response rating, Pigweed, Palmer (pigweed, palmer [7]; [24]) | Plant response rating, Ryegrass, Italian (ryegrass, Italian [9]; [24]) | Plant response rating, Foxtail, Giant (foxtail, giant [14]; [26]) | Plant response rating, Kochia (kochia [16]; [26]) | Plant response rating, Pigweed, Palmer (pigweed, palmer [18]; [26]) | Plant response rating, Ryegrass, Italian (ryegrass, Italian [20]; [26]) | Plant response rating, Galium (galium; [26])
100: Plant response rating, Goosegrass (goosegrass [4]; [24]) | Plant response rating, Soybean (soybean [21]; [26])
40: Plant response rating, Soybean (soybean [10]; [24]) | Plant response rating, Wheat (wheat [22]; [26])
80: Plant response rating, Goosegrass (goosegrass [4]; [23]) | Plant response rating, Ryegrass, Italian (ryegrass, Italian [9]; [23]) | Plant response rating, Soybean (soybean [21]; [25])
10: Plant response rating, Oat, Wild (oat, wild [6]; [23]) | Plant response rating, Blackgrass (blackgrass [12]; [25]) | Plant response rating, Oat, Wild (oat, wild [17]; [25])
20: Plant response rating, Wheat (wheat [11]; [24]) | Plant response rating, Goosegrass (goosegrass [15]; [26]) | Plant response rating, Wheat (wheat [22]; [25])
70: Plant response rating, Blackgrass (blackgrass [1]; [23]) | Plant response rating, Pigweed, Palmer (pigweed, palmer [18]; [25])
0: Plant response rating, Corn (corn [2]; [23]) | Plant response rating, Corn (corn [2]; [24]) | Plant response rating, Kochia (kochia [5]; [23]) | Plant response rating, Ragweed (ragweed [8]; [23]) | Plant response rating, Ragweed (ragweed [8]; [24]) | Plant response rating, Soybean (soybean [10]; [23]) | Plant response rating, Wheat (wheat [11]; [23]) | Plant response rating, Goosegrass (goosegrass [15]; [25]) | Plant response rating, Ragweed (ragweed [19]; [25]) | Plant response rating, Ragweed (ragweed [19]; [26]) | Plant response rating, Barnyardgrass (barnyardgrass) | Plant response rating, Ducksalad (ducksalad) | Plant response rating, Rice (rice) | Plant response rating, Sedge, Umbrella (sedge, umbrella)
60: Plant response rating, Foxtail, Giant (foxtail, giant [3]; [23]) | Plant response rating, Pigweed, Palmer (pigweed, palmer [7]; [23]) | Plant response rating, Blackgrass (blackgrass [12]; [26]) | Plant response rating, Corn (corn [13]; [26]) | Plant response rating, Galium (galium; [25])
30: Plant response rating, Oat, Wild (oat, wild [6]; [24]) | Plant response rating, Corn (corn [13]; [25]) | Plant response rating, Foxtail, Giant (foxtail, giant [14]; [25]) | Plant response rating, Oat, Wild (oat, wild [17]; [26]) | Plant response rating, Ryegrass, Italian (ryegrass, Italian [20]; [25])
50: Plant response rating, Kochia (kochia [5]; [24]) | Plant response rating, Kochia (kochia [16]; [25])

C[C@H]1CN(C(=O)c2cccc(-n3cncn3)c2)c2cccc(OC(F)(F)F)c2O1 [Compound 48]
90: Plant response rating, Foxtail, Giant (foxtail, giant [3]; [24]) | Plant response rating, Pigweed, Palmer (pigweed, palmer [7]; [24])
50: Plant response rating, Kochia (kochia [16]; [26])
40: Plant response rating, Goosegrass (goosegrass [4]; [23]) | Plant response rating, Goosegrass (goosegrass [15]; [26]) | Plant response rating, Ryegrass, Italian (ryegrass, Italian [20]; [26]) | Plant response rating, Galium (galium; [25])
30: Plant response rating, Corn (corn [2]; [24]) | Plant response rating, Kochia (kochia [5]; [24]) | Plant response rating, Oat, Wild (oat, wild [6]; [24]) | Plant response rating, Pigweed, Palmer (pigweed, palmer [7]; [23]) | Plant response rating, Blackgrass (blackgrass [12]; [26]) | Plant response rating, Oat, Wild (oat, wild [17]; [26]) | Plant response rating, Pigweed, Palmer (pigweed, palmer [18]; [25]) | Plant response rating, Wheat (wheat [22]; [26])
100: Plant response rating, Ryegrass, Italian (ryegrass, Italian [9]; [24]) | Plant response rating, Soybean (soybean [21]; [26])
20: Plant response rating, Blackgrass (blackgrass [1]; [23]) | Plant response rating, Foxtail, Giant (foxtail, giant [3]; [23]) | Plant response rating, Oat, Wild (oat, wild [6]; [23]) | Plant response rating, Foxtail, Giant (foxtail, giant [14]; [25]) | Plant response rating, Kochia (kochia [16]; [25]) | Plant response rating, Ragweed (ragweed [19]; [26]) | Plant response rating, Ryegrass, Italian (ryegrass, Italian [20]; [25])
0: Plant response rating, Corn (corn [2]; [23]) | Plant response rating, Kochia (kochia [5]; [23]) | Plant response rating, Ragweed (ragweed [8]; [23]) | Plant response rating, Ragweed (ragweed [8]; [24]) | Plant response rating, Soybean (soybean [10]; [23]) | Plant response rating, Soybean (soybean [10]; [24]) | Plant response rating, Wheat (wheat [11]; [23]) | Plant response rating, Wheat (wheat [11]; [24]) | Plant response rating, Blackgrass (blackgrass [12]; [25]) | Plant response rating, Goosegrass (goosegrass [15]; [25]) | Plant response rating, Ragweed (ragweed [19]; [25]) | Plant response rating, Barnyardgrass (barnyardgrass) | Plant response rating, Ducksalad (ducksalad) | Plant response rating, Rice (rice) | Plant response rating, Sedge, Umbrella (sedge, umbrella)
60: Plant response rating, Corn (corn [13]; [26]) | Plant response rating, Galium (galium; [26])
80: Plant response rating, Blackgrass (blackgrass [1]; [24]) | Plant response rating, Goosegrass (goosegrass [4]; [24])
10: Plant response rating, Corn (corn [13]; [25]) | Plant response rating, Oat, Wild (oat, wild [17]; [25]) | Plant response rating, Wheat (wheat [22]; [25])
70: Plant response rating, Ryegrass, Italian (ryegrass, Italian [9]; [23]) | Plant response rating, Foxtail, Giant (foxtail, giant [14]; [26]) | Plant response rating, Pigweed, Palmer (pigweed, palmer [18]; [26]) | Plant response rating, Soybean (soybean [21]; [25])
